Results from PubChem BioAssay AID2060897 (Molecular Pharmacology Branch, DTP, NCI, 2025).
“And” between values parts separate entries of the source, which are not always exact repeats. Equal entries are not always repeated.

Tested on: 966289-007-R4-J1-PDC complex spheroid viability
Test: Anticancer human tumor 966289-007-R4-J1-PDC patient-derived pancreatic adenocarcinoma cell line growth inhibition [RAS]
Settings: for viability, T/C: stronger effect = lower value
Outline: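 Multi-cell-type spheroids: tumor cells plus HUVEC endothelial cells and mesenchymal stem cells. RAS-pathway inhibitors were combined with targeted agents, each dosed in half-log steps down from clinical Cmax, or from 10 microM when Cmax was unknown.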

[1] = curve of first compound, second compound 0.000949 µM
[2] = curve of first compound, second compound 0.003 µM
[3] = curve of first compound, second compound 0.00949 µM
[4] = curve of first compound, second compound 0.03 µM
[5] = curve of first compound, second compound 0.0949 µM
[6] = curve of first compound, second compound 0.3 µM
[7] = second compound 0.000949 µM, first compound 0.0316 µM
[8] = second compound 0.000949 µM, first compound 0.1 µM
[9] = second compound 0.000949 µM, first compound 0.316 µM
[10] = second compound 0.000949 µM, first compound 1 µM
[11] = second compound 0.000949 µM, first compound 3.16 µM
[12] = second compound 0.000949 µM, first compound 10 µM
[13] = second compound 0.003 µM, first compound 0.0316 µM
[14] = second compound 0.003 µM, first compound 0.1 µM
[15] = second compound 0.003 µM, first compound 0.316 µM
[16] = second compound 0.003 µM, first compound 1 µM
[17] = second compound 0.003 µM, first compound 3.16 µM
[18] = second compound 0.003 µM, first compound 10 µM
[19] = second compound 0.00949 µM, first compound 0.0316 µM
[20] = second compound 0.00949 µM, first compound 0.1 µM
[21] = second compound 0.00949 µM, first compound 0.316 µM
[22] = second compound 0.00949 µM, first compound 1 µM
[23] = second compound 0.00949 µM, first compound 3.16 µM
[24] = second compound 0.00949 µM, first compound 10 µM
[25] = second compound 0.03 µM, first compound 0.0316 µM
[26] = second compound 0.03 µM, first compound 0.1 µM
[27] = second compound 0.03 µM, first compound 0.316 µM
[28] = second compound 0.03 µM, first compound 1 µM
[29] = second compound 0.03 µM, first compound 3.16 µM
[30] = second compound 0.03 µM, first compound 10 µM
[31] = second compound 0.0949 µM, first compound 0.0316 µM
[32] = second compound 0.0949 µM, first compound 0.1 µM
[33] = second compound 0.0949 µM, first compound 0.316 µM
[34] = second compound 0.0949 µM, first compound 1 µM
[35] = second compound 0.0949 µM, first compound 3.16 µM
[36] = second compound 0.0949 µM, first compound 10 µM
[37] = second compound 0.3 µM, first compound 0.0316 µM
[38] = second compound 0.3 µM, first compound 0.1 µM
[39] = second compound 0.3 µM, first compound 0.316 µM
[40] = second compound 0.3 µM, first compound 1 µM
[41] = second compound 0.3 µM, first compound 3.16 µM
[42] = second compound 0.3 µM, first compound 10 µM
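Note: spheroids exposed to agents for one week before readout.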
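Throughout, for viability, T/C: percent viability relative to DMSO vehicle control wells as 100%.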

With `Cc1nc(N2CCC3(CC2)COC(C)C3N)c(CO)nc1Sc1ccnc(N)c1Cl` (stereo not drawn) + CCn1c(-c2cc(N3CCN(C)CC3)cnc2C(C)OC)c2c3cc(ccc31)-c1csc(n1)CC(NC(=O)C1CC1C)C(=O)N1CCCC(N1)C(=O)OCC(C)(C)C2 the IC50 [1] was > 10 µM, the IC50 [2] was > 10 µM and the IC50 [3] was > 10 µM. For the same compound, the IC50 [4] was > 10 µM, the IC50 [5] was > 10 µM and the IC50 [6] was > 10 µM. For the same compound, the viability, T/C [7] was 130%, the viability, T/C [8] was 121% and the viability, T/C [9] was 107%. The viability, T/C [10] was 85.4%, the viability, T/C [11] was 93.8% and the viability, T/C [12] was 115%. It also gave a viability, T/C [13] of 114%, a viability, T/C [14] of 92.9% and a viability, T/C [15] of 94.1%. For the same compound, the viability, T/C [16] was 86.7%, the viability, T/C [17] was 81.5% and the viability, T/C [18] was 97.1%. For the same compound, the viability, T/C [19] was 106%, the viability, T/C [20] was 99.2% and the viability, T/C [21] was 84.4%. For the same compound, the viability, T/C [22] was 122%, the viability, T/C [23] was 86.1% and the viability, T/C [24] was 97.7%. It also gave a viability, T/C [25] of 87.4%, a viability, T/C [26] of 69.8% and a viability, T/C [27] of 102%. For the same compound, the viability, T/C [28] was 107%, the viability, T/C [29] was 79.9% and the viability, T/C [30] was 102%. The viability, T/C [31] was 75.6%, the viability, T/C [32] was 131% and the viability, T/C [33] was 86.9%. It also gave a viability, T/C [34] of 119%, a viability, T/C [35] of 113% and a viability, T/C [36] of 117%. It also gave a viability, T/C [37] of 92.3%, a viability, T/C [38] of 88.6% and a viability, T/C [39] of 110%. The viability, T/C [40] was 108%, the viability, T/C [41] was 111% and the viability, T/C [42] was 103%.

`CCC(CC)c1cc(NC2CCC(N)C2)n2nccc2n1` (stereo not drawn) was tested, and the viability, T/C (compound 0.1 µM) was 92.7% [middle of 4 runs], the viability, T/C (compound 0.316 µM) was 109% [middle of 4 runs] and the viability, T/C (compound 3.16 µM) was 2.28% [middle of 4 runs]. The viability, T/C (compound 10 µM) was 2.13% [middle of 4 runs] and the IC50 (curve of compound) was 1.86 µM [middle of 4 runs].

With `C[C@@H](NC(=O)c1ncnc(N)c1Cl)c1ncc(C(=O)Nc2cc(C(F)(F)F)c(Cl)cn2)s1` + CCn1c(-c2cccnc2C(C)OC)c2c3cc(ccc31)N1CCOC(CC(NC(=O)C(C(C)C)N(C)C(=O)C3(F)CCN(C(=O)C#CC(C)(C)N(C)C)CC3)C(=O)N3CCCC(N3)C(=O)OCC(C)(C)C2)C1 the IC50 [1] was > 10 µM, the IC50 [2] was > 10 µM and the IC50 [3] was > 10 µM. For the same compound, the IC50 [4] was > 10 µM, the IC50 [5] was > 10 µM and the IC50 [6] was > 10 µM. It also gave a viability, T/C [7] of 115%, a viability, T/C [8] of 92.1% and a viability, T/C [9] of 91.9%. The viability, T/C [10] was 47.5%, the viability, T/C [11] was 66.5% and the viability, T/C [12] was 100%. The viability, T/C [13] was 92.5%, the viability, T/C [14] was 75.4% and the viability, T/C [15] was 118%. It also gave a viability, T/C [16] of 61%, a viability, T/C [17] of 72.3% and a viability, T/C [18] of 118%. It also gave a viability, T/C [19] of 70.2%, a viability, T/C [20] of 80.6% and a viability, T/C [21] of 71.3%. The viability, T/C [22] was 85%, the viability, T/C [23] was 115% and the viability, T/C [24] was 111%. It also gave a viability, T/C [25] of 55.4%, a viability, T/C [26] of 57.1% and a viability, T/C [27] of 81%. The viability, T/C [28] was 73.5%, the viability, T/C [29] was 120% and the viability, T/C [30] was 98.5%. For the same compound, the viability, T/C [31] was 55.5%, the viability, T/C [32] was 99.1% and the viability, T/C [33] was 87%. The viability, T/C [34] was 78.2%, the viability, T/C [35] was 106% and the viability, T/C [36] was 134%. It also gave a viability, T/C [37] of 65.6%, a viability, T/C [38] of 91.7% and a viability, T/C [39] of 90.5%. For the same compound, the viability, T/C [40] was 117%, the viability, T/C [41] was 146% and the viability, T/C [42] was 105%.

With `C[C@@H](NC(=O)c1ncnc(N)c1Cl)c1ncc(C(=O)Nc2cc(C(F)(F)F)c(Cl)cn2)s1` + C=CC(=O)N1CCN(c2nc(OCC3CCCN3C)nc3c(F)c(-c4nc(N)cc(C)c4C(F)(F)F)c(Cl)cc23)C(C)C1 the IC50 (curve of first compound, second compound 0.00316 µM) was > 10 µM, the IC50 (curve of first compound, second compound 0.01 µM) was > 10 µM and the IC50 (curve of first compound, second compound 0.0316 µM) was > 10 µM. For the same compound, the IC50 (curve of first compound, second compound 0.1 µM) was > 10 µM, the IC50 (curve of first compound, second compound 0.316 µM) was > 10 µM and the IC50 (curve of first compound, second compound 1 µM) was > 10 µM. For the same compound, the viability, T/C (second compound 0.00316 µM, first compound 0.0316 µM) was 123%, the viability, T/C (second compound 0.00316 µM, first compound 0.1 µM) was 117% and the viability, T/C (second compound 0.00316 µM, first compound 0.316 µM) was 115%. For the same compound, the viability, T/C (second compound 0.00316 µM, first compound 1 µM) was 119%, the viability, T/C (second compound 0.00316 µM, first compound 3.16 µM) was 128% and the viability, T/C (second compound 0.00316 µM, first compound 10 µM) was 76.2%. For the same compound, the viability, T/C (second compound 0.01 µM, first compound 0.0316 µM) was 112%, the viability, T/C (second compound 0.01 µM, first compound 0.1 µM) was 116% and the viability, T/C (second compound 0.01 µM, first compound 0.316 µM) was 122%. The viability, T/C (second compound 0.01 µM, first compound 1 µM) was 109%, the viability, T/C (second compound 0.01 µM, first compound 3.16 µM) was 119% and the viability, T/C (second compound 0.01 µM, first compound 10 µM) was 100%. It also gave a viability, T/C (second compound 0.0316 µM, first compound 0.0316 µM) of 120%, a viability, T/C (second compound 0.0316 µM, first compound 0.1 µM) of 113% and a viability, T/C (second compound 0.0316 µM, first compound 0.316 µM) of 118%. It also gave a viability, T/C (second compound 0.0316 µM, first compound 1 µM) of 128%, a viability, T/C (second compound 0.0316 µM, first compound 3.16 µM) of 127% and a viability, T/C (second compound 0.0316 µM, first compound 10 µM) of 86.2%. For the same compound, the viability, T/C (second compound 0.1 µM, first compound 0.0316 µM) was 116%, the viability, T/C (second compound 0.1 µM, first compound 0.1 µM) was 119% and the viability, T/C (second compound 0.1 µM, first compound 0.316 µM) was 123%. For the same compound, the viability, T/C (second compound 0.1 µM, first compound 1 µM) was 123%, the viability, T/C (second compound 0.1 µM, first compound 3.16 µM) was 116% and the viability, T/C (second compound 0.1 µM, first compound 10 µM) was 111%. The viability, T/C (second compound 0.316 µM, first compound 0.0316 µM) was 115%, the viability, T/C (second compound 0.316 µM, first compound 0.1 µM) was 107% and the viability, T/C (second compound 0.316 µM, first compound 0.316 µM) was 130%. For the same compound, the viability, T/C (second compound 0.316 µM, first compound 1 µM) was 125%, the viability, T/C (second compound 0.316 µM, first compound 3.16 µM) was 116% and the viability, T/C (second compound 0.316 µM, first compound 10 µM) was 118%. For the same compound, the viability, T/C (second compound 1 µM, first compound 0.0316 µM) was 101%, the viability, T/C (second compound 1 µM, first compound 0.1 µM) was 103% and the viability, T/C (second compound 1 µM, first compound 0.316 µM) was 120%. For the same compound, the viability, T/C (second compound 1 µM, first compound 1 µM) was 128%, the viability, T/C (second compound 1 µM, first compound 3.16 µM) was 134% and the viability, T/C (second compound 1 µM, first compound 10 µM) was 94.1%.

With `Nc1ccn(C2OC(CO)C(O)C2(F)F)c(=O)n1` (stereo not drawn) the viability, T/C (compound 0.00316 µM) was 100% and 92.9% and 103% (2×), the viability, T/C (compound 0.01 µM) was 30.1% [middle of 4 runs] and the viability, T/C (compound 0.0316 µM) was 1.12% and 1.45% (2×) and 1.74%. The viability, T/C (compound 0.1 µM) was 1.25% [middle of 4 runs], the viability, T/C (compound 0.316 µM) was 0.85% and 1.16% and 1.48% and the viability, T/C (compound 1 µM) was 1.33% [middle of 4 runs]. The IC50 (curve of compound) was 7.29 nM [middle of 4 runs].
